# Reference: patent US20190133979A1, “METHOD FOR ENHANCING DELIVERY OF THERAPEUTIC DRUGS TO TREATMENT SITES” (Chang Gung University, priority 2013, published 2019)
# Entries after “also recorded” stand apart in the source; their conditions may differ.
# Experiments:
# LN229 cells [1] = assay: Determination of cell-associated MNPs (MNPcell) in LN229 cells; type: cell-based, human; settings: for effect on uptake of MNPs, in words: MNPs 100 μg/mL, 10 or 30 μM, 24 hrs, vs vehicle; for increase of MNPcell / enhancement of MNPcell at 4° C.: LN229 cells; for enhancement of MNPcell at 4° C.: 30 μM, 2 h; for effect on cell-associated MNPs (MNPcell), in words: LN-229 cells, with or without magnetic field; for increase of cellular uptake of MNP: vs without compound; for concentration as low as which cellular uptake of MNPs is significantly increased / capability of enhancing cellular uptake of MNPs, in words: FIG. 4; for capability of enhancing cellular uptake of MNPs, in words: LN-299 [sic] cells
# Experimental: (§1) LN229 cells, human glioma cells, were cultured in DMEM medium; whereas HeLa cells, human cervical cancer cells, were cultured in MEM medium. Both media were supplemented with 10% fetal bovine serum (FBS) and 1% penicillin/streptomycin/amphotericin B solution. The cells were maintained in a 37° C. incubator supplied with 5% CO2 and sub-cultured every 3 to 4 days.
# LN229 or HeLa cells were seeded and grown in 24-well plates. […] In some experiments, cells were equilibrated at 4° C. for 20 min, followed by an additional 2-h incubation with MNPs at 4° C. in the absence and presence of the magnet. A home-made magnetic plate with 24 pieces of cylindrical NdFeB magnet were used to provide a magnetic field of 3.4 kG at the center of each well. For the group without the magnet during incubation with MNPs, the magnetic plate was placed underneath the culture plates for 5 min after MNP administration to facilitate MNP sedimentation. The cells were then washed twice with phosphate-buffered saline (PBS) and trypsinized prior to colorimetric quantification. The cell pellet containing cell-associated MNPs (MNPcell) was treated with 10% hydrochloric acid at 55° C. for 4 h, followed by adding ammonium persulfate (1 mg/mL) and potassium thiocyanate solution (1 M). The amount of cell-associated iron was determined with VICTOR3 Multilabel Plate Reader (PerkinElmer, Waltham, Mass.) at OD490. A calibration curve was prepared under identical conditions.
# HeLa cells = assay: Determination of cell-associated MNPs (MNPcell) in HeLa cells; type: cell-based, human; settings: for increase of MNPcell: 10 μM; for effect on cell-associated MNPs (MNPcell), in words: with or without magnetic field
# Experimental: as §1
# (§2) LN229 or HeLa cells were seeded and grown in 24-well plates. After attaining 80-90% confluence, the cells were exposed to MNPs (100 μg/mL) and phenolic compounds (10 or 30 μM) in the presence or absence of NdFeB magnet underneath the plate for 24 h. In some experiments, cells were equilibrated at 4° C. for 20 min, followed by an additional 2-h incubation with MNPs at 4° C. in the absence and presence of the magnet. A home-made magnetic plate with 24 pieces of cylindrical NdFeB magnet were used to provide a magnetic field of 3.4 kG at the center of each well. For the group without the magnet during incubation with MNPs, the magnetic plate was placed underneath the culture plates for 5 min after MNP administration to facilitate MNP sedimentation. The cells were then washed twice with phosphate-buffered saline (PBS) and trypsinized prior to colorimetric quantification. The cell pellet containing cell-associated MNPs (MNPcell) was treated with 10% hydrochloric acid at 55° C. for 4 h, followed by adding ammonium persulfate (1 mg/mL) and potassium thiocyanate solution (1 M). The amount of cell-associated iron was determined with VICTOR3 Multilabel Plate Reader (PerkinElmer, Waltham, Mass.) at OD490. A calibration curve was prepared under identical conditions.
# LN229 cells [2] = assay: Confocal microscopy of fluorescent CMX-MNP internalization; type: cell-based, human
# Experimental: LN229 cells were seeded onto poly-lysine coated coverslips 18 h before experiments. The cells were incubated with green fluorescent MNPs with carboxylmethyl-dextran coating (nano-screenMAG-CMX; 100 μg/mL) and methyl gallate (30 μM) at 37° C. for 2 h in the presence of NdFeB magnet underneath the culture plate. Cells were then washed twice with PBS and then incubated with Lysotracker® (0.125 μM) for 30 min for staining of lysosomes. The cells were than washed with PBS and fixed with 4% paraformaldehyde for 20 min at room temperature. The cells were counterstained with DAPI and imaged with a Zeiss LSM 510 Meta laser confocal microscope system equipped with a 100×/1.4 oil immersion objective lens. Image processing and analysis of fluorescent MNPs colocalized with cells was performed using Fiji Image J.
# tumor cells = assay: Timing of EGCG and MNP addition, MNPcell in 5 study groups; type: cell-based
# Experimental: as §2
# In this example, the timing for adding the present polyphenolic compound with MNPs to the tumor cells was investigated. To this purpose, 5 study groups were designed and respectively treated with the designated compounds, then the MNPcell in each group was determined. The concentrations of MNPs and epigallocatechin gallate (EGCG) or compound 12 used in this example were respectively 100 μg/mL and 10 μM. In Group I (the control group), cells were treated with MNPs (2 hrs). In Group 2, cells were first treated with EGCG (2 hrs), which was removed, and then with MNPs (2 hrs). In Group 3, cells were simultaneously treated with EGCG and MNPs for 2 hours. In Group 4, cells were first treated with EGCG (2 hrs), then with the combination of MNP and EGCG (2 hrs). […]
# [3] = 10 μM, magnetic field-free environment
smiles,measurement,setting,value
"CCCOC(=O)c1cc(O)c(O)c(O)c1 [Compound 3, Propyl Gallate]","effect on uptake of MNPs, in words",LN229 cells [1]; absence of magnet,effective in enhancing the uptake of MNPs
same,"effect on uptake of MNPs, in words",LN229 cells [1]; presence of magnet,effective in enhancing the uptake of MNPs
"O=C(O)/C=C/c1ccc(O)c(O)c1 [Compound 9, caffeic acid]","effect on uptake of MNPs, in words",LN229 cells [1]; presence of magnet,enhanced the uptake of MNPs in the presence of magnet
"NC(=O)c1cc(O)c(O)c(O)c1 [Compound 4, 3,4,5-trihydroxybenzamide]","effect on uptake of MNPs, in words",LN229 cells [1]; absence of magnet,effective in enhancing the uptake of MNPs
same,"effect on uptake of MNPs, in words",LN229 cells [1]; presence of magnet,effective in enhancing the uptake of MNPs
"O=C(O)CCc1ccc(O)c(O)c1 [Compound 10, Dihydrocaffeic Acid]","effect on uptake of MNPs, in words",LN229 cells [1]; presence of magnet,enhanced the uptake of MNPs in the presence of magnet
"COC(=O)c1cc(O)c(O)c(O)c1 [Compound 2, Methyl Gallate]",increase of MNPcell,"LN229 cells [1]; 10 μM, absence of the magnet",1.4 fold
same,increase of MNPcell,"LN229 cells [1]; 10 μM, magnet underneath cells",2.1 fold
same,increase of MNPcell,"LN229 cells [1]; 50 μM, absence of the magnet",4.5 fold
same,increase of MNPcell,"LN229 cells [1]; 50 μM, presence of the magnet",2.9 fold
same,enhancement of MNPcell at 4° C.,LN229 cells [1]; with the magnet,0.4 fold
same,enhancement of MNPcell at 4° C.,LN229 cells [1]; without magnet,1.4 fold
same,"effect on cell-associated MNPs (MNPcell), in words",LN229 cells [1]; listed as Methyl gallate,enhanced MNPcell in a concentration-dependent manner
same,"effect on cell-associated MNPs (MNPcell), in words",LN229 cells [1]; listed as methyl gallate,concentration-dependent increase
same,"effect on uptake of MNPs, in words",LN229 cells [1]; absence of magnet,effective in enhancing the uptake of MNPs
same,"effect on uptake of MNPs, in words",LN229 cells [1]; presence of magnet,effective in enhancing the uptake of MNPs
same,increase of MNPcell,HeLa cells; absence of the magnet,0.6 fold
same,increase of MNPcell,HeLa cells; presence of the magnet,1.0 fold
same,"effect on cell-associated MNPs (MNPcell), in words",HeLa cells,concentration-dependent increase
same,"internalization of MNPs, in words","LN229 cells [2]; 30 μM, 2 h, CMX-MNP 100 μg/mL, compared to vehicle control",greatly increased internalization of MNPs
same,"overlap coefficient, Mander's coefficient, of MNP relative to lysosomes","LN229 cells [2]; in the presence of methyl gallate (n=8), vehicle 0.51±0.08",0.65±0.03
"O=C(O)c1ccc(O)cc1 [Compound 6, p-hydroxybenzoic acid]","effect on uptake of MNPs, in words",LN229 cells [1]; absence of magnet,none of them was effective
same,"effect on uptake of MNPs, in words",LN229 cells [1]; presence of magnet,none of them was effective
"O=C(O)c1cc(O)cc(O)c1 [Compound 7, α-resorcylic acid]","effect on uptake of MNPs, in words",LN229 cells [1]; absence of magnet,none of them was effective
same,"effect on uptake of MNPs, in words",LN229 cells [1]; presence of magnet,none of them was effective
"O=C(O[C@@H]1Cc2c(O)cc(O)cc2O[C@@H]1c1cc(O)c(O)c(O)c1)c1cc(O)c(O)c(O)c1 [Compound 12, Epigallocatechin gallate]",increase of cellular uptake of MNP,"LN229 cells [1]; 10 μM, external magnetic field",16 times
same,increase of cellular uptake of MNP,LN229 cells [1]; [3],5.7 times
same,concentration as low as which cellular uptake of MNPs is significantly increased,LN229 cells [1],3 µM
same,"capability of enhancing cellular uptake of MNPs, in words",LN229 cells [1]; listed as EGCG,possessed the capability of enhancing cellular uptake of MNPs; also recorded: enhanced cellular uptake of MNPs
same,"uptake of MNPs, in words","tumor cells; Group 2: EGCG 10 μM 2 hrs, removed, then MNPs 100 μg/mL 2 hrs",no enhanced uptake of MNPs was found
same,"uptake of MNPs, in words","tumor cells; Group 3: EGCG 10 μM and MNPs 100 μg/mL simultaneously 2 hours, presence and absence of magnet",enhanced uptake of MNPs was achieved
same,"uptake of MNPs, in words","tumor cells; Groups 4 and 5: EGCG pre-treatment 2 or 4 hrs, then MNP and EGCG 2 hrs, vs Group 3",did not result in further increase in the cellular uptake of MNPs
"COc1cc(/C=C/C(=O)O)ccc1O [Compound 11, ferulic acid]","effect on uptake of MNPs, in words",LN229 cells [1]; absence of magnet,none of them was effective
same,"effect on uptake of MNPs, in words",LN229 cells [1]; presence of magnet,none of them was effective
"O=C(O[C@@H]1Cc2c(O)cc(O)cc2O[C@@H]1c1ccc(O)c(O)c1)c1cc(O)c(O)c(O)c1 [Compound 13, Epicatechin gallate]",increase of cellular uptake of MNP,"LN229 cells [1]; 10 μM, external magnetic field",5-6 times
same,increase of cellular uptake of MNP,LN229 cells [1]; [3],12 times
same,concentration as low as which cellular uptake of MNPs is significantly increased,LN229 cells [1],3 µM
same,"capability of enhancing cellular uptake of MNPs, in words",LN229 cells [1]; listed as ECG,possessed the capability of enhancing cellular uptake of MNPs; also recorded: enhanced cellular uptake of MNPs
"O=C(O)c1ccc(O)c(O)c1 [Compound 5, protocatechuic acid]","effect on uptake of MNPs, in words",LN229 cells [1]; presence of magnet,enhanced the uptake of MNPs in the presence of magnet
O=c1c(O)c(-c2ccc(O)c(O)c2)oc2cc(O)cc(O)c12 [quercetin],cellular uptake of MNP higher than without compound,"LN229 cells [1]; 20 μM, absence of magnetic field",5 times
same,"capability of enhancing cellular uptake of MNPs, in words",LN229 cells [1],possessed the capability of enhancing cellular uptake of MNPs; also recorded: enhanced cellular uptake of MNPs
same,"effect on uptake of MNP in the presence of magnet, in words",LN229 cells [1]; presence of magnet,more significant increase in the uptake of MNP via a concentration-dependent manner
"O.O=C(O)c1cc(O)c(O)c(O)c1 [Compound 1, Gallic acid monohydrate]",increase of MNPcell,"LN229 cells [1]; 50 μM, absence of the magnet",5.4 fold
same,increase of MNPcell,"LN229 cells [1]; 50 μM, presence of the magnet",3.9 fold
same,enhancement of MNPcell at 4° C.,LN229 cells [1]; with the magnet,0.6 fold
same,enhancement of MNPcell at 4° C.,LN229 cells [1]; without magnet,1.9 fold
same,"effect on cell-associated MNPs (MNPcell), in words",LN229 cells [1],concentration-dependent increase
same,"effect on uptake of MNPs, in words",LN229 cells [1]; absence of magnet,effective in enhancing the uptake of MNPs
same,"effect on uptake of MNPs, in words",LN229 cells [1]; presence of magnet,effective in enhancing the uptake of MNPs
same,concentration as low as which a significant increase in LN229 cell-associated MNPs is induced,"LN229 cells [1]; compared to vehicle, with and without magnet",6 µM
same,increase of MNPcell,HeLa cells; absence of the magnet,1.8 fold
same,increase of MNPcell,HeLa cells; presence of the magnet,1.9 fold
same,"effect on cell-associated MNPs (MNPcell), in words",HeLa cells,concentration-dependent increase
